Patent US20130123357A1, “Methods for Providing Enhanced Resveratrol Activity Using 4-Acetoxy-Resveratrol” (BRIGHAM YOUNG UNIVERSITY, priority 2010, published 2013)

Legend:
[1] = system: Fos (FBJ murine osteosarcoma viral oncogene); experiment: Gene array qPCR, human dermal equivalent: Fos; assay type: cell-based; details: 1.0% 4AR in DMSO, human skin equivalent, 24 hours, mRNA by qPCR
Excerpt: (§1) In this gene array experiment, we examined the ability of 4AR at a one percent concentration in DMSO (where 100% DMSO served as the vehicle) to either stimulate or inhibit several important genes and quantify directly the transcribed messenger RNA (mRNA) levels by Taqman real time PCR. The test material was placed onto a biological barrier (human dermal equivalent) using a MatTek “ready-to-use” in vitro organotypic tissue equivalent, based on well-documented and validated protocols, using the EpiDerm™ Model EPI-200 Kit. The MatTek kits uses normal (non-transformed) donated human cells as the basis for all of its tissue equivalents. These cells are grown (cultured) in standard Millipore Millicell™ Single Well Tissue Culture Plate Inserts at the air liquid interface or ALI. Apical (top) surface of tissue is exposed to air allowing for direct application of test articles. […] Once the 4 AR test material penetrated the human skin barrier equivalent the gene chip was activated and subsequently mRNA levels were quantified and the results represent stimulation or inhibition of a specific gene.
(§2) To investigate the effects of 4AR on the expression of genes associated with the extracellular matrix (ECM) of the skin, qPCR experiments were conducted using the tissue cultures (model system described above) with subsequent quantification of mRNA levels from […] tissue/cells. […]

[2] = system: Fibrillin; experiment: Gene array qPCR, human dermal equivalent: Fibrillin; assay type: cell-based; details: 1.0% 4AR in DMSO, human skin equivalent, 24 hours, mRNA by qPCR
Excerpt: as §1, §2

[3] = system: Cytokeratin 2E; experiment: Gene array qPCR, human dermal equivalent: Cytokeratin 2E; assay type: cell-based; details: 1.0% 4AR in DMSO, human skin equivalent, 24 hours, mRNA by qPCR
Excerpt: as §1, §2

[4] = system: Metallothionein 1; experiment: Gene array qPCR, human dermal equivalent: Metallothionein 1; assay type: cell-based; details: 1.0% 4AR in DMSO, human skin equivalent, 24 hours, mRNA by qPCR
Excerpt: as §1, §2

[5] = system: FosB (FBJ murine osteosarcoma viral oncogene homolog B); experiment: Gene array qPCR, human dermal equivalent: FosB; assay type: cell-based; details: 1.0% 4AR in DMSO, human skin equivalent, 24 hours, mRNA by qPCR
Excerpt: as §1, §2

[6] = system: PCNA (Proliferating Cell Nuclear Antigen); experiment: Gene array qPCR, human dermal equivalent: PCNA; assay type: cell-based; details: 1.0% 4AR in DMSO, human skin equivalent, 24 hours, mRNA by qPCR
Excerpt: as §1, §2

[7] = system: IGF1 (Insulin-like growth factor 1); experiment: Gene array qPCR, human dermal equivalent: IGF1; assay type: cell-based; details: 1.0% 4AR in DMSO, human skin equivalent, 24 hours, mRNA by qPCR
Excerpt: as §1, §2

[8] = system: human dermal monolayer fibroblasts; experiment: Collagen deposition by ELISA for Human Type I collagen C-terminal propeptide; assay type: cell-based; details: approximately 9 μM, 48 hours, vehicle 0.1% DMSO
Method: 4′-Acetoxy-resveratrol was tested to determine whether it can stimulate collagen deposition in human monolayer dermal fibroblasts in the following examples. In this assay, we first determined the toxicity of the test materials (untreated cells, positive control-ascorbate, vehicle=0.1% DMSO, and a range of the 4′-acetoxy-resveratrol molecule, from approximately 10 nM to 10 μM).
The human dermal monolayer fibroblasts were exposed to the test materials for approximately 48 hours. Thereafter, the samples were processed for MTT and collagen deposition, etc.
Collagen deposition by ELISA for Human Type I collagen C-terminal propeptide was determined. Dermal fibroblasts synthesize primarily type I collagen, and the cleavage of the C-terminal propeptide is required for deposition into fibrils within the extracellular matrix. […] The amount of cleaved propeptide is directly proportional to the amount of type I collagen deposited, and can be precisely quantified using purified standards and a commercial ELISA kit (Takara Mirus, Inc., Cat. # TAK-MK-101). After 48 hours in the presence of the test materials or controls, culture medium supernatants were removed and immediately analyzed using the ELISA kit according to manufacturer's instructions using a Molecular Devices Vmax plate 96 well plate reader and SoftMax software. […]

[9] = system: Elastin; experiment: Gene array qPCR, human dermal equivalent: Elastin; assay type: cell-based; details: 1.0% 4AR in DMSO, human skin equivalent, 24 hours, mRNA by qPCR
Excerpt: as §1, §2

[10] = Shelf-life stability of the synthesized material; assay type: physicochemical
Excerpt: The synthetic method described above uses a direct, efficient synthesis at a low cost, and results in improved stability (longer shelf life) where it remains a white crystalline material for over 2 years, as well as higher biological activity (increase absorption, lower dose and longer half-life) with various cosmetic, nutraceuticals (nutritional supplements) and pharmaceutical applications, including (a) anti-aging, anti-oxidant, (b) anti-inflammatory, (c) anti-cancer, (d) neuroprotection (for improved brain health), (e) cardiovascular health, (f) prostate health and (g) skin health, as described below in the following examples.

[11] = system: Protein Kinase C alpha; experiment: Gene array qPCR, human dermal equivalent: Protein Kinase C alpha; assay type: cell-based; details: 1.0% 4AR in DMSO, human skin equivalent, 24 hours, mRNA by qPCR
Excerpt: as §1, §2

[12] = system: Catalase; experiment: Gene array qPCR, human dermal equivalent: Catalase; assay type: cell-based; details: 1.0% 4AR in DMSO, human skin equivalent, 24 hours, mRNA by qPCR
Excerpt: as §1, §2

[13] = system: TGF (transforming growth factor) beta type II receptor; experiment: Gene array qPCR, human dermal equivalent: TGF beta type II receptor; assay type: cell-based; details: 1.0% 4AR in DMSO, human skin equivalent, 24 hours, mRNA by qPCR
Excerpt: as §1, §2

[14] = system: SIRT1 (Sirtuin 1); experiment: Gene array qPCR, human dermal equivalent: SIRT1; assay type: cell-based; details: 1.0% 4AR in DMSO, human skin equivalent, 24 hours
Excerpt: as §1, §2

[15] = Body weight gain and food/water intake in rats, 21 days; assay type: in vivo, adult male Long-Evans rats
Method: Adult male Long-Evans rats were administered 4AR for 21 days. DMSO served as the control and 4AR was dissolved into DMSO at the following concentrations: 5.0 mg/kg body weight, 20.0 mg/kg body weight and 90.0 mg/kg body weight (n=12 per group).
After 10 days of receiving the treatments there was a significant decrease in body weight gain, by an average of approximately 17 grams, in the 90.0 mg/kg vs. the control values (525.0+5.1 vs. 542.1+6.2 grams, respectively. After 20 days on the treatments there was a significant decrease in body weight gain, by approximately 14 grams, in the 20.0 mg/kg vs. control values (566.0+4.7 vs. 551.8+3.7 grams). Finally, there was an even greater significant decrease in body weight gain between the 90.0 mg/kg vs. control values after 20 days on the treatments representing a 54.2 grams decrease (or 566.0+4.7 vs. 511.8+4.1 grams).

[16] = system: JunD; experiment: Gene array qPCR, human dermal equivalent: JunD; assay type: cell-based; details: 1.0% 4AR in DMSO, human skin equivalent, 24 hours, mRNA by qPCR
Excerpt: as §1, §2

[17] = system: HBEGF (Heparin-binding EGF-like growth factor); experiment: Gene array qPCR, human dermal equivalent: HBEGF; assay type: cell-based; details: 1.0% 4AR in DMSO, human skin equivalent, 24 hours, mRNA by qPCR
Excerpt: as §1, §2

[18] = system: Superoxide dismutase 2, mitochondrial; experiment: Gene array qPCR, human dermal equivalent: SOD2; assay type: cell-based; details: 1.0% 4AR in DMSO, human skin equivalent, 24 hours, mRNA by qPCR
Excerpt: as §1, §2

In the case of `CC(=O)Oc1ccc(C=Cc2cc(O)cc(O)c2)cc1` [4AR, 3,5-dihydroxy-4′-acetoxy stilbene], the “Fos increased by” value [1] is reported as 3.4-fold, the “Fibrillin increased by” value [2] is reported as 1.3-fold with and the “CK 2E decreased by” value [3] is reported as 3.5-fold with. The “Metallothionein 1 increased by” value [4] was 64.0-fold, the “FosB increased by” value [5] was 8.2-fold and the “PCNA increased by” value [6] was 5.4-fold with. For the same molecule, the “IGF1 increased by” value [7] was 2.6-fold, the “increase of collagen deposition compared to vehicle control” value [8] was 65% and the “Elastin increased by” value [9] was 2.8-fold. The “stability (shelf life): remains a white crystalline material” value [10] was “over 2 years”, the “Protein Kinase C alpha increased by” value [11] was 2.7-fold and the “Catalase increased by” value [12] was 1.6-fold. For the same molecule, the “TGF beta type II receptor increased by” value [13] was 1.7-fold, the “SIRT1 mRNA expression increased by” value [14] was 3.3-fold and the “decrease in body weight gain vs. control” value ([15]; 20.0 mg/kg, after 20 days) was “approximately 14 grams”. The body weight ([15]; 20.0 mg/kg, after 20 days, control 566.0+4.7) was 551.8+3.7 grams, the “decrease in body weight gain vs. control” value ([15]; 90.0 mg/kg, after 10 days) was “approximately 17 grams” and the body weight ([15]; 90.0 mg/kg, after 10 days, control 542.1+6.2) was 525.0+5.1 grams. For the same molecule, the “decrease in body weight gain vs. control” value ([15]; 90.0 mg/kg, after 20 days) was 54.2 grams, the body weight ([15]; 90.0 mg/kg, after 20 days, control 566.0+4.7) was 511.8+4.1 grams and the “food/water intake among the treatment groups” value ([15]; 5.0, 20.0 and 90.0 mg/kg body weight, 21 days, vs DMSO control) was “no significant differences”. The “JunD increased by” value [16] was 2.1-fold, the “HBEGF increased by” value [17] was 1.9-fold and the “Superoxide dismutase 2, mitochondrial increased by” value [18] was 1.7-fold.
